The values that follow come from patent publication US10882837B2, “Amide compounds and use thereof” (ALPHALA CO., LTD., priority 2017, dated 2021).

In general, IC50 refers to the concentration at which inhibition is half-maximal. The term inhibition denotes the percentage by which the read-out fell short of the control.

Test [1] deals with T1, glucagon receptor (GCGR) (Homo sapiens, UniProt P47871).
T1 construct: expressed in transfected cells; host or cells: CHO-K1
In words: Glucagon cAMP inhibition assay (Cisbio cAMP Dynamic 2 HTRF). It is filed as cell-based. The conditions noted are these: GCGR overexpressed CHO-K1 cells or human primary hepatocytes (not specified); glucagon at EC50. As to the method:
Glucagon eAMP Inhibition Assay
Downstream secondary messenger eAMP induced by glucagon was detected by Cisbio cAMP Dynamic 2 kit. Testing compounds were each prepared as a dimethyl sulfoxide (DMSO) solution at the concentration of 10 mM. To evaluate the potency of compounds in inhibiting the cAMP production, glucagon receptor (GCGR) overexpressed CHO-K1 cells or human primary hepatocytes were treated with compounds with a serial dilution. The cells were re-suspended in Hank's Balanced Salt solution (HBSS) contained 0.1% (w/v) bovine serum albumin and 800 nM 3-isobutyl-1-methylxanthine (IBMX) and seeded into low volume, 384 wells white plate. The diluted compounds were then added into the plate for 30 minutes pre-incubation where the final DMSO concentration was 1%. The cells were stimulated with glucagon at the concentration equaled to EC50 (an indicium of the concentration of a drag that gives half-maximal response) for 30 minutes at room temperature. After incubation, lysis buffer contain cAMP antibody and fluorescence acceptor were added into each well for additional 60 minutes incubation. Results were recorded by Molecular Devices SpectraMax Paradigm with the HTRF Detection Cartridges and the IC50 value of each compound in inhibiting the cAMP production was calculated with non-linear regression based on the amount of cAMP production.
A general note: TR-FRET usually uses a lanthanide donor and a delayed reading to cut background.

For test [2], the target named is GCGR (Homo sapiens, UniProt P47871). In words: I125-glucagon binding assay (competition, GCGR membrane fractions). Also on record: expressed in transfected cells; host or cells: CHO-K1; inhibition: dose or concentration left out as unconfirmed. The conditions noted are these: for IC50: competition with I125-glucagon 0.0625 nM, membrane fractions from GCGR overexpressed CHO-K1 cells; for inhibition: read-out: percentage of inhibition (number in parenthesis in IC50 binding column). Here is the method: I^125-Glucagon Binding Assay
Chain of GCGR (P47871 26-477, species assumed): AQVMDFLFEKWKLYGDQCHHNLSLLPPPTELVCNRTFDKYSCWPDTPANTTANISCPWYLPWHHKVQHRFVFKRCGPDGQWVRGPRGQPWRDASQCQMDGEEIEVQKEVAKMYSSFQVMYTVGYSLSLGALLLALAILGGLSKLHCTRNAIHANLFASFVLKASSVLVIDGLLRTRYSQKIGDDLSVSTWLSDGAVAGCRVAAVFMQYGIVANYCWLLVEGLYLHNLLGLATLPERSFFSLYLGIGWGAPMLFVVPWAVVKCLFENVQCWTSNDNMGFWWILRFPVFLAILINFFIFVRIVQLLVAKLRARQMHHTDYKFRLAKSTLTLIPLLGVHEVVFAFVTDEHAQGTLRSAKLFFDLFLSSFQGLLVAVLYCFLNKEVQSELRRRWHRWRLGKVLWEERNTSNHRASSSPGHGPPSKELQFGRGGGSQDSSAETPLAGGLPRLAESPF
The binding affinity of each compound was evaluated by a competition assay with I^125-glucagon. GCGR membrane fractions were obtained from GCGR overexpressed CHO-K1 cells as a stock of 1 mg/ml concentration. To evaluate the IC50 of compounds binding to GCGR, GCGR membrane fractions were treated with compounds with a serial dilution. The membrane fractions were diluted to 7.5 microgram per well in 70 microliter assay buffer contained 50 mM Tris pH 7.4 and 0.5% (w/v) bovine serum albumin and added into 96 wells plate. The membrane fractions were then mixed with 10 microliter diluted compounds. After 5 minutes pre-incubation, 20 microliter I^125 labeled glucagon (Perkin Elmer) was added into each well at the final concentration of 0.0625 nM. The assay mixtures were incubated at 25° C. for 30 minutes and then transferred onto the Millipore Multiscreen GF/B Plate coated with 0.5% (w/v) Polyethyleneimine. The filter plate was washed with wash buffer contained 50 mM Tris pH 7.4 for 2 times, 300 microliter each time. The residual isotope was detected by Hidex CHAMELEON V micro-beta counter and the IC50 value of each compound binding to GCGR was calculated with non-linear regression.

T1 sequence (P47871 26-477, species assumed): as above

`CCOC(=O)CCNC(=O)c1ccc(N[C@@H](c2ccc(-c3nnc(-c4ccccc4)o3)cc2)C(C)CC)cc1` (stereo partly drawn) [Compound 1-48, ethyl 3-(4-(((1R)-2-methyl-1-(4-(5-phenyl-1,3,4-oxadiazol-2-yl)phenyl)butyl)amino)benzamido)propanoate]: the results for the IC50 in test [1] and in test [2] were 164 nM and greater than 30000 nM, respectively.
For the compound `CCC(C)[C@@H](Nc1ccc(C(=O)NCCC(=O)O)cc1)c1ccc(-c2nnc(-c3ccccc3)o2)cc1` (stereo partly drawn) [Compound 1-50, 3-(4-(((1R)-2-methyl-1-(4-(5-phenyl-2,3,4-oxadiazol-2-yl)phenyl)butyl)amino)benzamido)propanoic acid], the IC50 stood at 2730 nM in test [1] and 82 nM in test [2].
As for `CCCC[C@H](Nc1ccc(C(=O)NCCC(=O)OCC)cc1)c1ccc(-c2nnc(C(F)(F)F)o2)cc1` [Compound 1-51, ethyl (S)-3-(4-((1-(4-(5-(trifluoromethyl)-1,3,4-oxadiazol-2-yl)phenyl)pentyl)amino)benzamido)propanoate], the IC50 worked out at 33.9 nM in test [1] and 6170 nM in test [2].
For the compound `CCCC[C@@H](Nc1ccc(C(=O)NCCC(=O)OCC)cc1)c1ccc(-c2nnc(C(F)(F)F)o2)cc1` [Compound 1-52, ethyl (R)-3-(4-((1-(4-(5-(trifluoromethyl)-1,3,4-oxadiazol-2-yl)phenyl)pentyl)amino)benzamido)propanoate], the IC50 was 439 nM in test [1] and greater than 30000 nM in test [2].
Turning to `CCCC[C@H](Nc1ccc(C(=O)NCCC(=O)O)cc1)c1ccc(-c2nnc(C(F)(F)F)o2)cc1` [Compound 1-53, (S)-3-(4-((1-(4-(5-(trifluoromethyl)-1,3,4-oxadiazol-2-yl)phenyl)pentyl)amino)benzamido)propanoic acid], the IC50 in test [1] turned out to be 1870 nM; in test [2], 351 nM.
Consider `CCCC[C@@H](Nc1ccc(C(=O)NCCC(=O)O)cc1)c1ccc(-c2nnc(C(F)(F)F)o2)cc1` [Compound 1-54, (R)-3-(4-((1-(4-(5-(trifluoromethyl)-1,3,4-oxadiazol-2-yl)phenyl)pentyl)amino)benzamido)propanoic acid], for which the concentration for half-maximal inhibition (IC50) stood at 3670 nM in test [1] and 3070 nM in test [2].
The matching figures for `CCOC(=O)CCNC(=O)c1ccc(N[C@H](c2ccc(-c3nnc(C(F)(F)F)o3)cc2)C(C)C)cc1` [Compound 1-55, ethyl (S)-3-(4-((2-methyl-1-(4-(5-(trifluoromethyl)-1,3,4-oxadiazol-2-yl)phenyl)propyl)amino)benzamido)propanoate]: 1360 nM and greater than 30000 nM.
The matching figures for `CCOC(=O)CCNC(=O)c1ccc(N[C@@H](c2ccc(-c3nnc(C(F)(F)F)o3)cc2)C(C)C)cc1` [Compound 1-56, ethyl (R)-3-(4-((2-methyl-1-(4-(5-(trifluoromethyl)-1,3,4-oxadiazol-2-yl)phenyl)propyl)amino)benzamido)propanoate]: 164 nM and greater than 30000 nM.
In the case of `CC(C)[C@@H](Nc1ccc(C(=O)NCCC(=O)O)cc1)c1ccc(-c2nnc(C(F)(F)F)o2)cc1` [Compound 1-58, (R)-3-(4-((2-methyl-1-(4-(5-(trifluoromethyl)-1,3,4-oxadiazol-2-yl)phenyl)propyl)amino)benzamido)propanoic acid], the IC50 in test [1] is greater than 30000 nM; in test [2], 875 nM.
As for `CCOC(=O)CCNC(=O)c1ccc(N[C@@H](CC(C)C)c2ccc(-c3nnc(-c4ccccc4)o3)cc2)cc1` [Compound 1-59, ethyl (S)-3-(4-((3-methyl-1-(4-(5-phenyl-1,3,4-oxadiazol-2-yl)phenyl)butyl)amino)benzamido)propanoate], the IC50 is 26 nM in test [1] and greater than 30000 nM in test [2].
Take `CCOC(=O)CCNC(=O)c1ccc(N[C@H](CC(C)C)c2ccc(-c3nnc(-c4ccccc4)o3)cc2)cc1` [Compound 1-60, ethyl (R)-3-(4-((3-methyl-1-(4-(5-phenyl-1,3,4-oxadiazol-2-yl)phenyl)butyl)amino)benzamido)propanoate]: the IC50 in test [1] was 114 nM; in test [2], greater than 30000 nM.
The matching figures for `CC(C)C[C@H](Nc1ccc(C(=O)NCCC(=O)O)cc1)c1ccc(-c2nnc(-c3ccccc3)o2)cc1` [Compound 1-61, (S)-3-(4-((3-methyl-1-(4-(5-phenyl-1,3,4-oxadiazol-2-yl)phenyl)butyl)amino)benzamido)propanoic acid]: 3250 nM and 201 nM.
Regarding `CC(C)C[C@@H](Nc1ccc(C(=O)NCCC(=O)O)cc1)c1ccc(-c2nnc(-c3ccccc3)o2)cc1` [Compound 1-62, (R)-3-(4-((3-methyl-1-(4-(5-phenyl-1,3,4-oxadiazol-2-yl)phenyl)butyl)amino)benzamido)propanoic acid], the IC50 in test [1] worked out at 2050 nM; in test [2] it was 876 nM.
Turning to `COC(=O)CCNC(=O)c1ccc(N[C@H](c2ccc(-c3nnc(-c4ccccc4)o3)cc2)C(C)C)cc1` [Compound 1-63, methyl (S)-3-(4-((2-methyl-1-(4-(5-phenyl-1,3,4-oxadiazol-2-yl)phenyl)propyl)amino)benzamido)propanoate], the half-maximal inhibitory concentration (IC50) amounted to 28 nM in test [1] and 1530 nM in test [2].
For `CC(C)[C@H](Nc1ccc(C(=O)NCCS(=O)(=O)O)cc1)c1ccc(-c2nnc(-c3ccccc3)o2)cc1` [Compound 1-64, (S)-2-(4-((2-methyl-1-(4-(5-phenyl-1,3,4-oxadiazol-2-yl)phenyl)propyl)amino)benzamido)ethane-1-sulfonic acid], the IC50 in test [1] is greater than 30000 nM; in test [2], 101 nM.
The matching figures for `CCOC(=O)CCNC(=O)c1ccc(NC(c2ccc(-c3noc(C(C)(C)C)n3)cc2)C(C)C)cc1` (stereo not drawn) [Compound 2-1, ethyl 3-(4-((1-(4-(5-(tert-butyl)-1,2,4-oxadiazol-3-yl)phenyl)-2-methylpropyl)amino)benzamido)propanoate]: 240 nM and 2900 nM.
On to `CC(C)C(Nc1ccc(C(=O)NCCC(=O)O)cc1)c1ccc(-c2noc(C(C)(C)C)n2)cc1` (stereo not drawn) [Compound 2-2, 3-(4-((1-(4-(5-(tert-butyl)-1,2,4-oxadiazol-3-yl)phenyl)-2-methylpropyl)amino)benzamido)propanoic acid], for which the IC50 came out at 878 nM in test [1] and 171 nM in test [2].
Turning to `CCCCC(Nc1ccc(C(=O)NCCC(=O)OCC)cc1)c1ccc(-c2noc(C(C)(C)C)n2)cc1` (stereo not drawn) [Compound 2-3], the results for the IC50 in test [1] and in test [2] were 225 nM and greater than 30000 nM, respectively.
Regarding `CCCCC(Nc1ccc(C(=O)NCCC(=O)O)cc1)c1ccc(-c2noc(C(C)(C)C)n2)cc1` (stereo not drawn) [Compound 2-4, 3-(4-((1-(4-(5-(tert-butyl)-1,2,4-oxadiazol-3-yl)phenyl)pentyl)amino)benzamido)propanoic acid], the IC50 in test [1] stood at 329 nM; in test [2], 164 nM.
In the case of `CCOC(=O)CCNC(=O)c1ccc(NC(CC(C)C)c2ccc(-c3noc(C(C)(C)C)n3)cc2)cc1` (stereo not drawn) [Compound 2-5, ethyl 3-(4-((1-(4-(5-(tert-butyl)-1,2,4-oxadiazol-3-yl)phenyl)-3-methylbutyl)amino)benzamido)propanoate], the IC50 in test [1] is 395 nM; in test [2], 6250 nM. Moreover, the inhibition in test [2] was 63%.
As to `CC(C)CC(Nc1ccc(C(=O)NCCC(=O)O)cc1)c1ccc(-c2noc(C(C)(C)C)n2)cc1` (stereo not drawn) [Compound 2-6, 3-(4-((1-(4-(5-(tert-butyl)-1,2,4-oxadiazol-3-yl)phenyl)-3-methylbutyl)amino)benzamido)propanoic acid], the IC50 in test [1] stood at 8630 nM; in test [2], 226 nM.
As for `CCCCC(Nc1ccc(C(=O)NCCC(=O)OCC)cc1)c1ccc(-c2noc(-c3ccccc3)n2)cc1` (stereo not drawn) [Compound 2-7, ethyl 3-(4-((1-(4-(5-phenyl-1,2,4-oxadiazol-3-yl)phenyl)pentyl)amino)benzamido)propanoate], in test [1], half-maximal inhibition (IC50) required 49 nM. In test [2], the IC50 stood at 1210 nM and the inhibition stood at 27%.
On to `CCCCC(Nc1ccc(C(=O)NCCC(=O)O)cc1)c1ccc(-c2noc(-c3ccccc3)n2)cc1` (stereo not drawn) [Compound 2-8, 3-(4-((1-(4-(5-phenyl-1,2,4-oxadiazol-3-yl)phenyl)pentyl)amino)benzamido)propanoic acid], for which the IC50 in test [1] is 934 nM; in test [2] it was 70 nM.
